Among the data in patent EP1377579B1 (Aventis Pharmaceuticals Inc., priority 2000, dated 2002) are IC50 values, retold here.

Structures can show the parent of a compound that is named as a salt.

The target of one assay is cdk2/cyclin E (Homo sapiens, UniProt P24941). Briefly: Cyclin-dependent kinase assay, cdk2/cyclin E. The note with it: CDK2 IC50, nM, GST-pRb substrate, 10 µM ATP.
The next assay deals with cdk1/cyclin B (Homo sapiens, UniProt P06493). Nature of the assay: Cyclin-dependent kinase assay, cdk1/cyclin B. The note with it: CDK1 IC50, nM, Histone H1, 10 µM ATP.
The subject of another assay is PC-3. Briefly: In vitro proliferation assay (MTT), PC-3. Format: cell-based, human. The following applies: Homo sapiens, PC-3, MTT assay; value (SD, n) where given; read-out: PC-3 Prostate (IC50 µM). In a few lines:
(§1)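 A570 readout of DMSO-solubilized MTT formazan after 3-day compound exposure; IC50 from raw data. Cells plated 1000–2500/well and recovered overnight before dosing.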
(Tetrazolium dyes change colour on reduction, which living cells bring about.)

The next assay has as its target cdk4/cyclin D1 (Homo sapiens, UniProt P11802). Briefly: Cyclin-dependent kinase assay, cdk4/cyclin D1. In kind it is biochemical. The note with it: cyclin D1/cdk4; GST-pRb substrate, 10 µM ATP.
In a further assay the test system is MDA-MB-435. Nature of the assay: In vitro proliferation assay (MTT), MDA-MB-435. The following applies: Homo sapiens, MDA-MB-435, MTT assay; value (SD, n) where given; read-out: MB-435 Breast (IC50 µM). Format: cell-based, human. In a few lines: as §1

Chain of cdk1/cyclin B (P06493 whole entry): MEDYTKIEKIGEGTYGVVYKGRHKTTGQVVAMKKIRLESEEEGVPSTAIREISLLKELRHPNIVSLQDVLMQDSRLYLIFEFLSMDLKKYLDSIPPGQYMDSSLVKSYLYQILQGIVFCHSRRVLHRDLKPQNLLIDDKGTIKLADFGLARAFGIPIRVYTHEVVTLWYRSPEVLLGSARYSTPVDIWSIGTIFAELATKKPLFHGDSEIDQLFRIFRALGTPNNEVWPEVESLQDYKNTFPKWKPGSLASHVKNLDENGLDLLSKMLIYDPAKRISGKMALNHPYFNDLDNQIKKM
Chain of cdk1/cyclin B (P14635 whole entry partner): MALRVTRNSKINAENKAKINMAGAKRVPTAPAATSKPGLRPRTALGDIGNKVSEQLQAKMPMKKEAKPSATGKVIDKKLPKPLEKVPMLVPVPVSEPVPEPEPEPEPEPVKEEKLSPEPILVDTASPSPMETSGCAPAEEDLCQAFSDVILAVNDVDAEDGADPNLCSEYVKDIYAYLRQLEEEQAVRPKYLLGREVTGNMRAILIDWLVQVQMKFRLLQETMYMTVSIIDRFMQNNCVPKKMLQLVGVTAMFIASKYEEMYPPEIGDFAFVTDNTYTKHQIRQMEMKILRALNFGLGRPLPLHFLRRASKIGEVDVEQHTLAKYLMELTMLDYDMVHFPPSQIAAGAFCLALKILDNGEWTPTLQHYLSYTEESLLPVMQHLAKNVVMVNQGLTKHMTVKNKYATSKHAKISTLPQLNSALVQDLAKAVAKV
Chain of cdk4/cyclin D1 (P11802 whole entry): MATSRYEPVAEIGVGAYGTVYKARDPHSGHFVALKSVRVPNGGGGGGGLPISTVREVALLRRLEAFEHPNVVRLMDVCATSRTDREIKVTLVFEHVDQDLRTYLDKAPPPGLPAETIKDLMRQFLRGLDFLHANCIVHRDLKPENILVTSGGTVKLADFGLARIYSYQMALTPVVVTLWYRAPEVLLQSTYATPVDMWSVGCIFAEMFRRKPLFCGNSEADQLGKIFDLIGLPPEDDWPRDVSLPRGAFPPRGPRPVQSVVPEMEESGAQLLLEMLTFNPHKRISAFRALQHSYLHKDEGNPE
Chain of cdk4/cyclin D1 (P24385 whole entry partner): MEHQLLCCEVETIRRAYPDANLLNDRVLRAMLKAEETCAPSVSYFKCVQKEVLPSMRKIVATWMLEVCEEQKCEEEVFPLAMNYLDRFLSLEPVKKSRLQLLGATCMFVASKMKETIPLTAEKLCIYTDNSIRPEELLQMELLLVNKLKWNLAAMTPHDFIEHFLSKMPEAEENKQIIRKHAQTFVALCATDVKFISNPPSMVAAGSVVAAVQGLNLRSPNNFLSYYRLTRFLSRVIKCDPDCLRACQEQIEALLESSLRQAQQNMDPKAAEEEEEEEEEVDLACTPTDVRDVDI

As to `CC(=O)Nc1ccc(S(=O)(=O)N2CCC(Nc3nc(N[C@H]4CC[C@H](N)CC4)nc4c3ncn4C3CCCC3)CC2)cc1` [compound 115, trans-N-(4-{4-[2-(4-Amino-cyclohexylamino)-9-cyclopentyl-9H-purin-6-ylamino]-piperidine-1-sulfonyl}-phenyl)-acetamide dihydrochloride], the IC50 at cdk2/cyclin E came to 5 nM; on cdk1/cyclin B it was 5 nM; in the assay with PC-3 it was 5.1 µM; against cdk4/cyclin D1, 14 nM; in the assay on MDA-MB-435, 4.24 µM.

Regarding `N[C@H]1CC[C@H](Nc2nc(NC3CCN(S(=O)(=O)c4ccc5ccccc5c4)CC3)c3ncn(C4CCCC4)c3n2)CC1` [compound 116, trans-N^2-(4-Amino-cyclohexyl)-9-cyclopentyl-N^6-[1-(naphthalene-2-sulfonyl)-piperidin-4-yl]-9H-purine-2,6-diamine dihydrochloride], the IC50 worked out at 32 nM at cdk2/cyclin E; 18 nM at cdk1/cyclin B; 1.15 µM in the assay with PC-3; 382 nM at cdk4/cyclin D1; 0.64 µM in the assay on MDA-MB-435.

On to `N[C@H]1CC[C@H](Nc2nc(NC3CCN(S(=O)(=O)/C=C/c4ccccc4)CC3)c3ncn(C4CCCC4)c3n2)CC1` [compound 118, trans-N^2-(4-Amino-cyclohexyl)-9-cyclopentyl-N^6-[1-((E)-2-phenyl-ethenesulfonyl)-piperidin-4-yl]-9H-purine-2,6-diamine dihydrochloride], for which the IC50 came to 38 nM at cdk2/cyclin E; 22 nM at cdk1/cyclin B; 0.38 µM with PC-3; 38 nM on cdk4/cyclin D1; 0.28 µM with MDA-MB-435.

Turning to `N[C@H]1CC[C@H](Nc2nc(NC3CCN(S(=O)(=O)Cc4ccccc4)CC3)c3ncn(C4CCCC4)c3n2)CC1` [compound 119, trans-N^2-(4-Amino-cyclohexyl)-9-cyclopentyl-N^6-(1-phenylmethanesulfonyl-piperidin-4-yl)-9H-purine-2,6-diamine dihydrochloride], the IC50 against cdk2/cyclin E is 31 nM; on cdk1/cyclin B, 25 nM; with PC-3, 0.52 µM; at cdk4/cyclin D1 it was 65 nM; with MDA-MB-435, 0.4 µM.

As to `N[C@H]1CC[C@H](Nc2nc(NC3CCN(S(=O)(=O)c4c(Cl)cccc4Cl)CC3)c3ncn(C4CCCC4)c3n2)CC1` [compound 121, trans-N^2-(4-Amino-cyclohexyl)-9-cyclopentyl-N^6-[1-(2,6-dichloro-benzenesulfonyl)-piperidin-4-yl]-9H-purine-2,6-diamine dihydrochloride], the 50% inhibitory concentration (IC50) against cdk2/cyclin E worked out at 50 nM; on cdk1/cyclin B it was 120 nM; in the assay on PC-3, 0.82 µM; against cdk4/cyclin D1, 83 nM; with MDA-MB-435, 0.66 µM.

On to `N[C@H]1CC[C@H](Nc2nc(NC3CCN(S(=O)(=O)c4ccc(I)cc4)CC3)c3ncn(C4CCCC4)c3n2)CC1` [compound 122, trans-N^2-(4-Amino-cyclohexyl)-9-cyclopentyl-N^6-[1-(4-iodo-benzenesulfonyl)-piperidin-4-yl]-9H-purine-2,6-diamine dihydrochloride], for which the concentration for half-maximal inhibition (IC50) against cdk2/cyclin E is 38 nM; on cdk1/cyclin B, 10 nM; in the assay on PC-3, 0.65 µM; at cdk4/cyclin D1 it was 590 nM; in the assay on MDA-MB-435, 0.48 µM.

In the case of `Cc1ccc(S(=O)(=O)N2CCC(Nc3nc(N[C@H]4CC[C@H](N)CC4)nc4c3ncn4C3CCCC3)CC2)cc1` [compound 124, trans-N^2-(4-Amino-cyclohexyl)-9-cyclopentyl-N^6-[1-(toluene-4-sulfonyl)-piperidin-4-yl]-9H-purine-2,6-diamine dihydrochloride], the 50% inhibitory concentration (IC50) was determined as 26 nM on cdk2/cyclin E; 10 nM against cdk1/cyclin B; 0.56 µM with PC-3; 77 nM against cdk4/cyclin D1; 0.44 µM with MDA-MB-435.

The IC50 is the midpoint of a concentration-inhibition curve.
